Literature values, collected in patent publication US8790626B2, “Method for treating hair growth disorders, such as female pattern alopecia, and compositions useful therefore” (The University of Kentucky, priority 2005, dated 2014).

What was measured:
[1] = Jacobson, et al., 2005
[2] = U.S. Pat. No. 6,924,299

| SMILES | Epidermal differentiation and skin barrier integrity [1] | Blood flow and oxygen delivery to tissue [2] |
| --- | --- | --- |
| CCCCCCCCCCCCCCOC(=O)c1cccnc1 [Myristyl nicotinate, myristyl nicotinate] | promote epidermal differentiation leading to strong enhancement of skin barrier integrity | – |
| CCCCCCCCOC(=O)c1cccnc1 [octyl nicotinate] | – | stimulates blood flow and oxygen delivery to tissue |
